Experimental data from a melting point compilation (Tetko et al.).

Row | SMILES | melting point [°C]
1 | COCCOc1cccc(CNC(=O)CCl)c1 | 90 to 92
2 | O=C(O)c1cnc(Cl)cc1Cl | 158 to 160
3 | Cc1cc2c(cc1Br)NCC(C)O2 (stereo not drawn) | 93 to 95
4 | N#CC1(CS(N)(=O)=O)CCCC1 | 72 to 74
5 | Cc1nsc(N)c1C(=O)O | 158 to 160
6 | CS(=O)(=O)Cc1noc(C(Cl)(Cl)Cl)n1 | 110 to 112
7 | COC(=O)CNc1ncc(C)cc1[N+](=O)[O-] | 107 to 109
8 | Cc1ccc(-n2c(C)nnc2S)cc1 | 98 to 100
9 | Cc1cc(C(=O)CCl)c(C)n1-c1nccs1 | 85 to 95
10 | Cc1cc(C(=O)CCl)c(C)n1C(C)C | 45 to 47
11 | O=S(=O)(Cl)c1sc(Cl)nc1Cl | 57 to 59
12 | Cc1cc(Cl)cc(N)c1I | 48 to 50
13 | Fc1ccc(-c2nc(CCl)co2)cc1F | 59 to 61
14 | CNc1ccc(Cl)cc1[N+](=O)[O-] | 106 to 108
15 | Cc1noc(S)n1 | 123 to 125
16 | CS(=O)(=O)CCC1NC(=O)NC1=O (stereo not drawn) | 160 to 162
17 | c1cc2n(n1)CCCN2 | 99 to 101
18 | CC(C)(C)OC(=O)N1CCC(O)(Cc2cccc(Cl)c2)C1 (stereo not drawn) | 109 to 111
19 | CCOC(=O)/C(C#N)=C\Nc1ccc(F)c(F)c1F | 142 to 144
20 | N#CCC(=O)c1ccc(OC(F)F)cc1 | 80 to 82
21 | O=c1[nH]c(S)nc2sccc12 | 315 to 317
22 | Nc1ccc(CCn2cc(Br)cn2)cc1 | 65 to 67
23 | CC1CC(=O)c2c(O)ccc(Cl)c21 (stereo not drawn) | 55 to 57
24 | Cc1cccc(OCC(=O)N2CCNCC2)c1C | 86 to 88
25 | Cn1ccnc1SCC(=O)O | 88 to 90

Row | SMILES | melting point [°C]
26 | O=C(O)c1cc2c(s1)CCCC2 | 179 to 181
27 | CCCCCCCCCCCCSc1nc2ccccc2c(=O)n1-c1ccccc1 | 62 to 64
28 | Cn1cc(SSc2cnn(C)c2)cn1 | 111 to 113
29 | O=S(=O)(Cl)c1c(Cl)cc(F)cc1Br | 55 to 57
30 | C#CCNC(=O)c1cccc(C#N)c1 | 132 to 134
31 | Nc1ccccc1-c1nc(C2CC2)no1 | 84 to 86
32 | CCCOc1ccc2c(c1)OCC(C(=O)O)C2 (stereo not drawn) | 139 to 141
33 | O=Cc1csc(-c2ccco2)n1 | 90 to 92
34 | Clc1ccc(-n2cccn2)nn1 | 142 to 144
35 | NC(CC(=O)N1CCOCC1)=NO | 147 to 149
36 | CC(C)(C)C(N)=NO | 93 to 95
37 | CC(C)c1cc(Br)ccc1O | 48 to 50
38 | NCc1cc(=O)n2ccccc2n1 | 123 to 125
39 | O=C(O)C1CC2CCC1O2 (stereo not drawn) | 44 to 46
40 | O=C(NO)c1ccc(Cl)cc1 | 170 to 172
41 | Nc1cc(=O)[nH]c(=O)n1Cc1ccc(Cl)cc1 | 279 to 281
42 | Clc1cc2nn[nH]c2cc1Cl | 249 to 251
43 | CSC(=C(C#N)C#N)N1CCOCC1 | 143 to 145
44 | CC(C)c1ccc(C=CCC(=O)O)cc1 | 49 to 51
45 | O=C(O)c1occc1CN1CCOCC1 | 184 to 186
46 | Cc1ccc(-c2nc(C)c(C(C)O)s2)cc1 (stereo not drawn) | 111 to 113
47 | O=C(O)C1=CC=CN2CCS(=O)(=O)N=C12 | 313 to 315
48 | O=C1CCc2cc(OCCCl)ccc2N1 | 150 to 152
49 | Cn1nnnc1S(C)(=O)=O | 64 to 66
50 | CNc1cc(Cl)ncn1 | 138 to 140

Row | SMILES | melting point [°C]
51 | CCOC(=O)c1sc2ncc(C(=O)OC)cc2c1N | 213 to 215
52 | N#Cc1cc2c([nH]c1=O)CCC2 | 219 to 221
53 | CN(C)CCN1C(=O)C(=O)c2cc(Br)ccc21 | 102 to 104
54 | Cc1cc(Br)oc1C(=O)O | 169 to 171
55 | Cc1ccc(OCC2CCCO2)c(S(=O)(=O)Cl)c1 (stereo not drawn) | 76 to 78
56 | CN(C)C1=CC(=C(N)N=O)C=CN1 | 129 to 131
57 | COc1ccc(N)cc1OCC(N)=O | 161 to 163
58 | N#CC1CSCCN1 (stereo not drawn) | 81 to 83
59 | COC(=O)c1cc(Cl)ccn1 | 55 to 57
60 | O=C(O)C1CC1C1CCCCC1 (stereo not drawn) | 52 to 54
61 | CCOC(=O)c1c(C)n(C2CCCCC2)c2ccc(O)cc12 | 247 to 249
62 | Cc1nn(C)cc1CCC(=O)O | 114 to 116
63 | O=C(O)c1ccc(Cn2cc(Br)cn2)o1 | 128 to 130
64 | Clc1cncc(N2CCCC2)n1 | 53 to 55
65 | CC(C)(C#N)N1CCN(C(C)(C)C#N)CC1 | 182 to 184
66 | CSc1nn(C)c(N)c1C(N)=O | 173 to 175
67 | OCc1cnn(Cc2ccc(Br)cc2)c1 | 72 to 74
68 | CCC(=O)N1CCc2cc(C(=O)CCl)ccc21 | 201 to 203
69 | Nc1ncc2c(n1)CCC1(C2)OCCO1 | 215 to 217
70 | CN(C)C(=O)Cn1cc(C(=O)O)nn1 | 199 to 201
71 | Cn1c(C(C)(C)C)nc2cc(N)ccc21 | 164 to 166
72 | COC(=O)c1cc(C)nc2nc(S)[nH]c(=O)c12 | 259 to 261
73 | [N-]=[N+]=NCC(=O)NCc1ccccc1 | 39 to 41

Now from value to molecule:

Row | melting point [°C] | SMILES
74 | 62 to 64 | CCOC(=O)c1cnc2ccc(C)cc2c1Cl
75 | 279 to 281 | Nc1ccc2c(c1)S(=O)(=O)NC2=O
76 | 175 to 182 | O=C(O)c1cnn(-c2ccccc2)c1
77 | 96 to 100 | O=[N+]([O-])c1cc(S(=O)(=O)N2CCCC2)ccc1Cl
78 | 113 to 115 | NC(C(=O)O)(c1ccccc1F)C(F)(F)F (stereo not drawn)
79 | 156 to 158 | COc1cccc(-c2nn(-c3ccccc3)cc2C(=O)O)c1
80 | 144 to 146 | CCS(=O)(=O)c1ccc(Cl)c(C(=O)O)c1
81 | 170 to 172 | Cc1noc2nc(-c3ccccc3C(F)(F)F)cc(C(=O)O)c12
82 | 156 to 158 | O=C(O)CNC(=O)c1ccc(Oc2ccccc2)cc1
83 | 219 to 221 | CC1(c2cccc(C(F)(F)F)c2)NC(=O)NC1=O (stereo not drawn)
84 | 145 to 147 | O=C(O)CS(=O)(=O)c1ccc(Br)cc1
85 | 169 to 171 | O=C(O)c1cc2ccccc2nc1N1CCCC1
86 | 285 to 287 | O=S(=O)(c1ccc2[nH]c(S)nc2c1)N1CCOCC1
87 | 289 to 291 | Cc1cc(F)cc2c(=O)c(C(=O)O)c[nH]c12
88 | 76 to 78 | NCCS(=O)(=O)Cc1ccccc1
89 | 210 to 212 | Cc1nc2cc(C(=O)O)ccc2n1-c1ccccc1
90 | 100 to 102 | Cc1ccc(S(=O)(=O)N2CCCCC2C(=O)O)cc1 (stereo not drawn)
91 | 172 to 174 | CNS(=O)(=O)c1ccc(-c2ccccc2OC(F)(F)F)c(C(=O)O)c1
92 | 73 to 75 | O=S(=O)(Cl)Cc1c(F)cccc1F
93 | 96 to 100 | CC1Oc2c(C(=O)O)cccc2C1C (stereo not drawn)
94 | 173 to 175 | O=C(O)CNc1ccccc1Cl
95 | 179 to 181 | NNC(=O)c1cnn(-c2ccccc2)c1
96 | 117 to 119 | O=S(=O)(CCN1CCC(O)CC1)c1ccc(Br)cc1
97 | 168 to 170 | Cc1[nH]c2ccccc2c1-c1csc(N)n1

Row | melting point [°C] | SMILES
98 | 112 to 114 | O=C(O)CCOc1ccccc1F
99 | 169 to 171 | O=C(O)Cn1ccc2ccccc21
100 | 119 to 121 | O=C(O)c1noc(-c2cc(F)ccc2F)n1
101 | 208 to 210 | O=C(O)c1ccc(-c2cccc(C(F)(F)F)c2)cc1F
102 | 139 to 141 | Cc1c(F)ccc2c1NC(=O)C2=O
103 | 47 to 49 | Nc1cccc(C#Cc2ccccc2)c1
104 | 65 to 67 | O=C(c1cccc(S(=O)(=O)Cl)c1)N1CCCC1
105 | 169 to 171 | Cc1cc(C)cc(-n2c(C)cc(C(=O)O)c2C)c1
106 | 163 to 165 | O=C1NC(=O)c2cc(S(=O)(=O)Cl)ccc21
107 | 199 to 201 | CC(C)(C)NS(=O)(=O)Cc1cccc(C(=O)O)c1
108 | 319 to 321 | CC(C)(C)c1ccc(/C=C/c2cc(C(=O)O)c3cc(Br)ccc3n2)cc1
109 | 133 to 135 | COc1ccc(-n2c(C)cc(C=O)c2C)cc1
110 | 109 to 111 | COc1ccc(NS(=O)(=O)c2cccc(N)c2)cc1
111 | 144 to 146 | NC(=O)c1coc2ccccc12
112 | 67 to 69 | Nc1ccc(OCc2ccccn2)c(F)c1
113 | 178 to 180 | O=C(O)c1cccc(S(=O)(=O)N2CCCCC2)c1
114 | 43 to 45 | CNCCCOc1ccc(S(C)(=O)=O)cc1
115 | 157 to 159 | NS(=O)(=O)c1cc(Cl)ccc1[N+](=O)[O-]
116 | 172 to 174 | CCOC(=O)C(=O)Nc1ccc([N+](=O)[O-])cc1
117 | 177 to 179 | Sc1nc2ccccc2n1CCc1ccccc1
118 | 81 to 83 | Cc1cc(C)n(-c2ccccc2N)n1
119 | 106 to 108 | COc1ccc(N)cc1OCc1ccc2ccccc2n1
120 | 219 to 221 | Nc1ccc(N2CCOCC2)c(S(=O)(=O)Nc2ccccc2Cl)c1
121 | 76 to 78 | COc1ccc(C(C)=O)cc1-c1cccc(C(F)(F)F)c1

Row | melting point [°C] | SMILES
122 | 144 to 146 | COc1ccc(NS(C)(=O)=O)c(N)c1
123 | 118 to 120 | CS(=O)(=O)N1CCCc2cc(C(=O)CCl)ccc21
124 | 166 to 168 | Nc1ccc2oc(-c3ccccc3F)nc2c1
125 | 101 to 105 | COc1ccc(OCCCC(=O)O)cc1
126 | 262 to 264 | Sc1nc(-c2ccccc2)c[nH]1
127 | 109 to 111 | O=C(O)CCC(=O)N1CCOc2ccccc21
128 | 52 to 54 | O=C(O)Cc1cccc(OC(F)F)c1
129 | 153 to 155 | Cc1ccc(C(C)C)cc1OCC(=O)O
130 | 111 to 124 | CC(=O)c1ccc(-n2cncn2)cc1
131 | 123 to 125 | CC(=O)Nc1cccc(I)c1
132 | 213 to 215 | O=c1[nH]c2cnccc2n1Cc1ccccc1
133 | 237 to 239 | Sc1nnc2n(-c3ccccc3)c(-c3ccccc3)nn12
134 | 59 to 61 | O=C(O)CCSc1ccccc1
135 | 228 to 230 | O=C(O)c1ccc2nc(Cl)ccc2c1
136 | 111 to 113 | O=C(O)C1(c2cccc(C(F)(F)F)c2)CCCC1
137 | 166 to 168 | COc1ccc(C(=O)CC(C)(C)C(=O)O)cc1
138 | 154 to 156 | O=C(C(=O)c1ccccn1)c1ccccn1
139 | 133 to 135 | Cc1ccccc1NC(=O)CC#N
140 | 121 to 123 | Cc1cccnc1CC(=O)C(F)(F)F
141 | 158 to 160 | CC(=O)CSc1ccccc1C(=O)O
142 | 196 to 198 | NC(=O)c1cccc(OCCC(=O)O)c1
143 | 109 to 111 | CCNC(=O)c1ccc(O)cc1
